Tests used:
Assay type in all cases: biochemical
[1] = test system: panel of recombinant human P450s; assay: Two-step luminescent screen of luciferin derivatives against a panel of recombinant human P450s and HLM; settings: 50 μM substrate, panel of FIGS. 17-18
Description: P450s are Supersomes™ purchased from Discovery Labware (BD/Gentest). […] HLM is human liver microsomes.
1× substrate concentration: 50 μM.
The HLM reactions contained […] reaction, except where indicated otherwise. Control insect cell membranes were at 50 μg/50 μL.
For FIG. 20, the panel of human P450s was screened as described above.

[2] = target: T1, QuantiLum Luciferase (firefly luciferase) (Photinus pyralis, UniProt P08659); assay: Light emission of QuantiLum firefly luciferase with luciferin derivatives; settings: for Light reading at time 0 min / Light reading (Turner 20/20) at time 0: 0 min; for Light reading at time 7 min / Light reading (Turner 20/20) at time 7: 7 min; for Light reading at time 15 min / Light reading (Turner 20/20) at time 15: 15 min; for Light reading at time 22 min / Light reading (Turner 20/20) at time 22: 22 min; for Light reading at time 30 min / Light reading (Turner 20/20) at time 30: 30 min; for Light reading at time 45 min / Light reading (Turner 20/20) at time 45: 45 min; for Light reading at time 60 min / Light reading (Turner 20/20) at time 60: 60 min
T1 construct: purchased Promega Corporation El 70
Description: Gel and HPLC stop solution. Solid EDTA (free acid) was placed in a beaker with water and the pH of the solution adjusted to pH 7.0. The solution was then adjusted in volume to produce a solution 400 mM in EDTA.
Enzyme stop solution. A solution was prepared containing 20 mM Bis Tris, pH 6.5, 2 mM EDTA and 1 mg/ml bovine serum albumin.
Reaction buffer (2×). A solution was made containing 100 mM HEPES buffer, pH 8.0; 10 mM MgCl2.
DTT stock. Solid DTT (dithiothreitol) was dissolved in water and then adjusted to pH 8.0 with solid sodium hydroxide. The solution was then adjusted in volume to produce a solution 1 M in DTT.
(§1) After producing the solutions in Table 37, the volume of all reactions was adjusted to 990 μl with water. […] While the light reading was being taken, a 10 μl sample of the reaction was diluted to 500 μl with enzyme stop solution (cooled on ice to 4° C.) mixed and placed on ice and a second sample of 90 μl of reaction was added to 10 μl of Gel/HPLC stop and the tube placed at −20° C. A timer was started with the start of the first reaction and the start times of the remaining reactions was noted. At 15, 30, 45 and 60 minutes, each reaction was sampled as above and the light produced in the luminometer tubes was measured. At 7 and 22 minutes, the light produced in the luminometer tubes was read, but the reactions were not sampled.
as §1, with “40,” for “37,”, “−200” for “−20°”
The DTT, Coenzyme A, and QuantiLum stock solutions are the same as those described herein.
This solution was diluted 1:1 with water to produce an enzyme solution labeled “No addition.” This solution was diluted 1:1 with 400 mM DTT, pH 8.0 to produce a solution labeled+DTT. This solution was diluted 1: 1 with 4 mM Coenzyme A to produce a solution labeled+Co A. Finally, this solution was diluted 1: 1 with a solution having both 4 mM Coenzyme A and 400 mM DTT to produce a solution labeled+Co A & DTT.
50 μl samples of these solutions were placed in the wells of luminometer microtiter plates, row A to row G, respectively. Row H of the plates was given 50 μl of water.
Reactions in these plates were initiated by addition of 50 μl of solution containing QuantiLum luciferase using a 12 channel micropipette. The solutions added to the rows were: columns 1, 5, and 9—no addition solution; columns 2, 6, and 10—+Co A solution; columns 3, 7, and 11—+DTT solution, and; columns 4, 8, and 12—+Co A and DTT solution. After addition of the enzyme solution to the first row on every plate, a timer was started. After addition of the enzyme solution to the last row on each plate, the plate was sealed and read on a Veritas luminometer.

[3] = target: T1, QuantiLum Luciferase (firefly luciferase); assay: Residual active QuantiLum luciferase after reaction with derivative (Steady Glo)
Description: as §1
After all samples were taken, 50 μl of the sample diluted into enzyme stop solution was mixed with 50 μl of Steady Glo Luciferase Reagent (Promega) and the light produced measured after incubating at room temperature for 10 minutes. This measured the active luciferase in the initial reaction.
as §1, with “40,” for “37,”, “−200” for “−20°”

[4] = test system: thermostable luciferase (Luc 146-1H2); assay: Residual active thermostable luciferase after reaction with derivative (Steady Glo); settings: substrate 100; +DTT; sample taken 60 min
Description: After assembly, the reactions were initiated by addition of 25 μl of the thermostable luciferase stock solution above and mixing the tube contents. A 50 μl sample was immediately removed and placed in a luminometer tube and the light read and the tube then replaced in a tube rack at room temperature. While the light reading was being taken, a 5 μl sample of the remaining reaction (which was kept at room temperature) was diluted into 495 μl of 50 mM BisTris, pH 6.5, 1 mg/ml BSA, 1 mM EDTA prechilled to 4° C. and the tube mixed and placed on ice. The light produced by the samples in the luminometer tubes were re-read at 20, 40, 60, 90 and 120 minutes post enzyme addition. Additional 5 μl samples were taken and diluted as above at 60 and 120 minutes post enzyme addition. Once all these readings and samples were taken, 50 μl of the diluted samples was mixed with 50 μl of Steady Glo in luminometer tubes, the tubes incubated 10 minutes […] then the light produced was read on a Turner TD 20/20 luminometer.

T1 sequence (P08659 whole entry): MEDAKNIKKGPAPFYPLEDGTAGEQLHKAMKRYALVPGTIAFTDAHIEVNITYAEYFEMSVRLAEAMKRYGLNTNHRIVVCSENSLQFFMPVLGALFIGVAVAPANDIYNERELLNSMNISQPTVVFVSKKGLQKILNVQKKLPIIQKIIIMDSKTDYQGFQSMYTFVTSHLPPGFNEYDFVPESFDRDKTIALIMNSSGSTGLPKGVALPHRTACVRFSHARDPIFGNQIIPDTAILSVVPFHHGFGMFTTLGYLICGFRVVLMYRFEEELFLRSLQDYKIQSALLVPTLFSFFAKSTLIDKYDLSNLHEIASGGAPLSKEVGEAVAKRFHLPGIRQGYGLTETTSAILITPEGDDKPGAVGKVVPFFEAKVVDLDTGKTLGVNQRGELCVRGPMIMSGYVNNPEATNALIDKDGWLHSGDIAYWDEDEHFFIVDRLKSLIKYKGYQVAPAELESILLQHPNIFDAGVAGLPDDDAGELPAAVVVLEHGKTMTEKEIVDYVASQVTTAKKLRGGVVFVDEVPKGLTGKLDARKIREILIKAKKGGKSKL

## O=C(O)C1CSC(c2ccc3cc(OCc4ccccc4)ccc3n2)=N1 (stereo not drawn) [quinolylluciferin 6-benzyl ether]
[1]
  P450 enzyme activity / selectivity (words): preferred substrate for 3A7, and to a lesser degree a substrate for 3A4 and 2C8

## COC(=O)[C@H]1CSC(c2nc3ccccc3s2)=N1 [carboxyl methyl ester of deoxyluciferin]
[1]
  P450 enzyme activity / selectivity (words): substantial activity with CYP2C19 and strong selectivity for this enzyme over the others tested

## COc1ccc2nc(C3=NC(C(=O)O)CS3)sc2c1 (stereo not drawn) [Luc’in ME]
[2]; +Co A
  Light reading at time 0 min: 18.31
  Light reading at time 7 min: 2.276
  Light reading at time 15 min: 1.239
  Light reading at time 22 min: 1.178
  Light reading at time 30 min: 1.145
  Light reading at time 45 min: 0.916
  Light reading at time 60 min: 0.714
[2]; +DTT
  Light reading at time 0 min: 38.69
  Light reading at time 7 min: 6.42
  Light reading at time 15 min: 4.073
  Light reading at time 22 min: 3.31
  Light reading at time 30 min: 2.708
  Light reading at time 45 min: 2.202
  Light reading at time 60 min: 1.996
[2]; +EDTA
  Light reading at time 0 min: 1.067
  Light reading at time 7 min: 0.117
  Light reading at time 15 min: 0.058
  Light reading at time 22 min: 0.042
  Light reading at time 30 min: 0.024
  Light reading at time 45 min: 0.046
  Light reading at time 60 min: 0.012
[2]; No addition
  Light reading at time 0 min: 23.46
  Light reading at time 7 min: 3.144
  Light reading at time 15 min: 1.767
  Light reading at time 22 min: 1.317
  Light reading at time 30 min: 1.22
  Light reading at time 45 min: 0.982
  Light reading at time 60 min: 0.851
[2]; w/o ATP
  Light reading at time 0 min: 0
  Light reading at time 7 min: 0.017
  Light reading at time 15 min: 0.016
  Light reading at time 22 min: 0
  Light reading at time 30 min: 0
  Light reading at time 45 min: 0.017
  Light reading at time 60 min: 0.011
[3]; +Co A
  Light reading from residual active enzyme at time 0 min: 163.3
  Light reading from residual active enzyme at time 15 min: 161.8
  Light reading from residual active enzyme at time 30 min: 147.7
  Light reading from residual active enzyme at time 45 min: 144.7
  Light reading from residual active enzyme at time 60 min: 145.6
[3]; +DTT
  Light reading from residual active enzyme at time 0 min: 170
  Light reading from residual active enzyme at time 15 min: 172.3
  Light reading from residual active enzyme at time 30 min: 164.3
  Light reading from residual active enzyme at time 45 min: 161.6
  Light reading from residual active enzyme at time 60 min: 167.6
[3]; +EDTA
  Light reading from residual active enzyme at time 0 min: 150.5
  Light reading from residual active enzyme at time 15 min: 150
  Light reading from residual active enzyme at time 30 min: 152.1
  Light reading from residual active enzyme at time 45 min: 152.8
  Light reading from residual active enzyme at time 60 min: 151
[3]; No addition
  Light reading from residual active enzyme at time 0 min: 141.7
  Light reading from residual active enzyme at time 15 min: 35.4
  Light reading from residual active enzyme at time 30 min: 91.82
  Light reading from residual active enzyme at time 45 min: 85.72
  Light reading from residual active enzyme at time 60 min: 81.76
[3]; w/o ATP
  Light reading from residual active enzyme at time 0 min: 170
  Light reading from residual active enzyme at time 15 min: 168.9
  Light reading from residual active enzyme at time 30 min: 175.6
  Light reading from residual active enzyme at time 45 min: 181.9
  Light reading from residual active enzyme at time 60 min: 173.6

## O=C(O)[C@H]1CSC(c2nc3ccc(OCCO)cc3s2)=N1 [2 hydroxyethoxyluciferin derivative, 6′-(2-hydroxyethoxyl) luciferin]
[2]; +Co A
  Light reading (Turner 20/20) at time 0: 810,864
  Light reading (Turner 20/20) at time 7: 125,718
  Light reading (Turner 20/20) at time 15: 61,287
  Light reading (Turner 20/20) at time 22: 326,424
  Light reading (Turner 20/20) at time 30: 169,972
  Light reading (Turner 20/20) at time 45: 78,909
  Light reading (Turner 20/20) at time 60: 45,156
[2]; +DTT
  Light reading (Turner 20/20) at time 0: 2,515,513
  Light reading (Turner 20/20) at time 7: 294,885
  Light reading (Turner 20/20) at time 15: 146,849
  Light reading (Turner 20/20) at time 22: 335,031
  Light reading (Turner 20/20) at time 30: 237,487
  Light reading (Turner 20/20) at time 60: 67,064
[2]; No Additive
  Light reading (Turner 20/20) at time 0: 749,597
  Light reading (Turner 20/20) at time 7: 114,541
  Light reading (Turner 20/20) at time 15: 63,691
  Light reading (Turner 20/20) at time 22: 259,945
  Light reading (Turner 20/20) at time 30: 233,600
  Light reading (Turner 20/20) at time 45: 51,233
  Light reading (Turner 20/20) at time 60: 44,782
[2]; no ATP
  Light reading (Turner 20/20) at time 0: 87
  Light reading (Turner 20/20) at time 7: 106
  Light reading (Turner 20/20) at time 15: 387,497
  Light reading (Turner 20/20) at time 22: 218,745
  Light reading (Turner 20/20) at time 45: 11,499
  Light reading (Turner 20/20) at time 60: 20,100
[3]; no additive (reactions 3A, 4A)
  loss of luciferase activity on transformation of substrate: significant and substantial reduction in enzyme activity

## O=C(O)[C@H]1CSC(c2nc3ccc(OCc4ccccc4)cc3s2)=N1 [L'in-BE]
[4]
  light value of diluted reaction sample in Steady Glo: 962.1

Reference: US10745365B2, “Luminogenic and fluorogenic compounds and methods to detect molecules or conditions” (Promega Corporation, priority 2005, dated 2020)
